One data set has as its target T1, ALK5 (Homo sapiens, UniProt P36897).
T1 sequence (P36897 205-495 limits assumed): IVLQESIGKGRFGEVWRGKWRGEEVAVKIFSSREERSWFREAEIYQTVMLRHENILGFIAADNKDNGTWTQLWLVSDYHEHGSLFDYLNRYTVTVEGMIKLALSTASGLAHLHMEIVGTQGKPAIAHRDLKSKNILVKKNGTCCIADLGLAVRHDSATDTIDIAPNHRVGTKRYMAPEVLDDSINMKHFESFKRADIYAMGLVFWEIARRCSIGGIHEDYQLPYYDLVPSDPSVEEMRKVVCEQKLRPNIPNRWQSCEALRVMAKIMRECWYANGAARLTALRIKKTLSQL
As to the kind of experiment: Radiometric 33PanQinase ALK5 kinase assay (ProQinase), casein substrate. The format is biochemical. Conditions: for remaining activity at 10 µM: compound at 10 μM, in duplicate, read-out: Residual Activity (%) ALK5; for Selectivity Index: IC50 of p38α/IC50 of ALK5; for ALK5 inhibitory activity in words: at up to 5.0 μM for 18a–d, 'at up to 2.26 μM' for pyrimidin-4-yl compounds. Here is the method: To investigate whether compounds 14a–d, 15a–d, 16a–d, 17a–d, 18a–d, and 19a–d would inhibit ALK5, a kinase assay for preliminary screening was performed using the purified human ALK5 kinase domain produced in Sf9 insect cells and compounds at 10 μM.
(§1) All kinase experiments were completed by the ProQinase (Freiburg, Germany). All protein kinases were expressed in Sf9 insect cells or in E. coli as recombinant GST-fusion proteins or His-tagged proteins, either as full-length or enzymatically active fragments. All kinases were obtained from human cDNAs and purified by either GSH-affinity chromatography or immobilized metal. The purity of the protein kinases was examined by SDS-PAGE/Coomassie staining. The identity was checked by mass spectroscopy.
(§2) A radiometric protein kinase assay (^33PanQinase® activity assay) was used for measuring the kinase activity of the two protein kinases. All kinase assays were performed in 96-well FlashPlates^TM from PerkinElmer (Boston, MA, USA) in 50 μL reaction volumes. The reaction cocktail was pipetted in four steps in the following order: 20 μL of assay buffer (standard buffer), 5 μL of ATP solution (in H2O), 5 μL of test compound (in 10% DMSO), 20 μL enzyme/substrate mix.
(§3) The assay for all protein kinases contained 70 mM HEPES-NaOH pH 7.5, 3 mM MgCl2, 3 mM MnCl2, 3 μM Na-orthovanadate, 1.2 mM DTT, 50 μg/mL PEG20000, ATP, [γ-^33P]-ATP, protein kinase, and substrate.
(§4) The reaction cocktail was incubated at 30 °C for 60 min. The reaction was halted with 50 μL of 2% (v/v) H3PO4, plates were aspirated and washed two times with 200 μL 0.9% (w/v) NaCl. Incorporation of ^33Pi was established with a microplate scintillation counter (PerkinElmer, Boston, MA, USA). All assays were performed with a BeckmanCoulter/SAGIAN™ Core System.

Another data set has as its target p38α MAP kinase (Homo sapiens, UniProt Q16539). The data set is described as follows: Radiometric 33PanQinase p38α MAP kinase assay (ProQinase), ATF2 substrate. The conditions noted are these: for remaining activity at 10 µM: compound at 10 μM, in duplicate, read-out: Residual Activity (%) p38α. Type of data set: biochemical.
From the text: We selected p38α MAP kinase to survey the selectivity profile of this series of compounds because its kinase domain is among the most homologous to that of ALK5 [27].
as §1, §2, §3, §4

Molecules are shown by their SMILES. Bounds are passed on as bounds.

Sequence of p38α MAP kinase (Q16539 whole entry, the tested form may be a part): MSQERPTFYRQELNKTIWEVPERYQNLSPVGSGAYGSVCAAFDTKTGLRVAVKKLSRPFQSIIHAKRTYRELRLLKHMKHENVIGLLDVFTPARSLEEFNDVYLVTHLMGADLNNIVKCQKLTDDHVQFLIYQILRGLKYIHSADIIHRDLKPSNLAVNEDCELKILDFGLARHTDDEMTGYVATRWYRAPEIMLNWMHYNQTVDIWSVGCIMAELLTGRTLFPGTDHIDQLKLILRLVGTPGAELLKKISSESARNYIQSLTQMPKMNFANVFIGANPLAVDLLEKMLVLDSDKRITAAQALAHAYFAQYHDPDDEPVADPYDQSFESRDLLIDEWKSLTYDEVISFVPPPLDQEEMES

In turn, `CN(C)c1cccc(-c2nn(CC(=O)Nc3ccccc3)cc2-c2ccc3nccnc3c2)n1` [Compound 14a, 2-(3-(6-(Dimethylamino)pyridin-2-yl)-4-(quinoxalin-6-yl)-1H-pyrazol-1-yl)-N-phenylacetamide] returned a melting point of 212.5 to 214 °C. Also, at ALK5, the remaining activity at 10 µM was found to be 85%. Moreover, on p38α MAP kinase, the remaining activity at 10 µM amounted to 110%.

Turning to `CN(C)c1cccc(-c2nn(CC(=O)Nc3ccccc3F)cc2-c2ccc3nccnc3c2)n1` [Compound 14b, 2-(3-(6-(Dimethylamino)pyridin-2-yl)-4-(quinoxalin-6-yl)-1H-pyrazol-1-yl)-N-(2-fluorophenyl)acetamide], the melting point is 190.5 to 193 °C. Also, the remaining activity at 10 µM on ALK5 came to 84%. Besides, the remaining activity at 10 µM at p38α MAP kinase was 118%.

`CN(C)c1cccc(-c2nn(CC(=O)Nc3cccc(F)c3)cc2-c2ccc3nccnc3c2)n1` [Compound 14c, 2-(3-(6-(Dimethylamino)pyridin-2-yl)-4-(quinoxalin-6-yl)-1H-pyrazol-1-yl)-N-(3-fluorophenyl)acetamide] yielded a melting point of 176.5 to 178.5 °C. In addition, the remaining activity at 10 µM on ALK5 was found to be 37%. In addition, at p38α MAP kinase, the remaining activity at 10 µM worked out at 121%.

In turn, `CN(C)c1cccc(-c2nn(CC(=O)Nc3cccc(C#N)c3)cc2-c2ccc3nccnc3c2)n1` [Compound 14d, N-(3-Cyanophenyl)-2-(3-(6-(dimethylamino)pyridin-2-yl)-4-(quinoxalin-6-yl)-1H-pyrazol-1-yl)acetamide] registered a melting point of 218.5 to 221.5 °C. The remaining activity at 10 µM on ALK5 came out at 95%. Further, on p38α MAP kinase, the remaining activity at 10 µM is 121%.

`CN(C)c1cccc(-c2c(-c3ccc4nccnc4c3)cnn2CC(=O)Nc2ccccc2F)n1` [Compound 15b, 2-(5-(6-(Dimethylamino)pyridin-2-yl)-4-(quinoxalin-6-yl)-1H-pyrazol-1-yl)-N-(2-fluorophenyl)acetamide] returned a melting point of 130.2 to 133 °C. For the same compound, the remaining activity at 10 µM on ALK5 stood at 87%. Moreover, at p38α MAP kinase, the remaining activity at 10 µM was found to be 117%.

As for `CN(C)c1cccc(-c2c(-c3ccc4nccnc4c3)cnn2CC(=O)Nc2cccc(F)c2)n1` [Compound 15c, 2-(5-(6-(Dimethylamino)pyridin-2-yl)-4-(quinoxalin-6-yl)-1H-pyrazol-1-yl)-N-(3-fluorophenyl)acetamide], the melting point was 146.5 to 147.6 °C. Also, the remaining activity at 10 µM on ALK5 worked out at 88%. Besides, the remaining activity at 10 µM on p38α MAP kinase was found to be 109%.

As to `CN(C)c1cccc(-c2c(-c3ccc4nccnc4c3)cnn2CC(=O)Nc2cccc(C#N)c2)n1` [Compound 15d, N-(3-Cyanophenyl)-2-(5-(6-(dimethylamino)pyridin-2-yl)-4-(quinoxalin-6-yl)-1H-pyrazol-1-yl)acetamide], the melting point was 145.5 to 148 °C. At ALK5, the remaining activity at 10 µM was 94%. In addition, on p38α MAP kinase, the remaining activity at 10 µM worked out at 109%.

Regarding `Cc1csc(-c2nn(CC(=O)Nc3ccccc3)cc2-c2ccc3nccnc3c2)n1` [Compound 16a, 2-(3-(4-Methylthiazol-2-yl)-4-(quinoxalin-6-yl)-1H-pyrazol-1-yl)-N-phenylacetamide], the melting point fell in the range of 190.2 to 192.5 °C. In addition, the remaining activity at 10 µM at ALK5 turned out to be 5%. The remaining activity at 10 µM at p38α MAP kinase was 98%.

As to `Cc1csc(-c2nn(CC(=O)Nc3ccccc3F)cc2-c2ccc3nccnc3c2)n1` [Compound 16b, N-(2-Fluorophenyl)-2-(3-(4-methylthiazol-2-yl)-4-(quinoxalin-6-yl)-1H-pyrazol-1-yl)acetamide], the melting point lay in the range of 197.5 to 200 °C. Further, the remaining activity at 10 µM at ALK5 worked out at 5%. The remaining activity at 10 µM on p38α MAP kinase was 103%.

Turning to `Cc1csc(-c2nn(CC(=O)Nc3cccc(F)c3)cc2-c2ccc3nccnc3c2)n1` [Compound 16c, N-(3-Fluorophenyl)-2-(3-(4-methylthiazol-2-yl)-4-(quinoxalin-6-yl)-1H-pyrazol-1-yl)acetamide], the melting point lay within 212.1 to 213.5 °C. Further, the remaining activity at 10 µM at ALK5 stood at 3%. Also, the remaining activity at 10 µM on p38α MAP kinase stood at 101%.

`Cc1csc(-c2nn(CC(=O)Nc3cccc(C#N)c3)cc2-c2ccc3nccnc3c2)n1` [Compound 16d, N-(3-Cyanophenyl)-2-(3-(4-methylthiazol-2-yl)-4-(quinoxalin-6-yl)-1H-pyrazol-1-yl)acetamide] came in with a melting point of 222.3 to 223 °C. Further, at ALK5, the remaining activity at 10 µM amounted to 3%. For the same compound, the remaining activity at 10 µM on p38α MAP kinase is 108%.

Turning to `CN(C)c1cccc(-c2nn(CC(=S)Nc3ccccc3)cc2-c2ccc3nccnc3c2)n1` [Compound 18a, 2-(3-(6-(Dimethylamino)pyridin-2-yl)-4-(quinoxalin-6-yl)-1H-pyrazol-1-yl)-N-phenylethanethioamide], the melting point is 182 to 184 °C. Moreover, on ALK5, half-maximal inhibition (IC50) required 5.75 µM, the “Selectivity Index” value is listed as greater than 2 and the remaining activity at 10 µM turned out to be 29%. Besides, on p38α MAP kinase, the IC50 was greater than 10 µM and the remaining activity at 10 µM worked out at 119%.

Regarding `CN(C)c1cccc(-c2nn(CC(=S)Nc3ccccc3F)cc2-c2ccc3nccnc3c2)n1` [Compound 18b, 2-(3-(6-(Dimethylamino)pyridin-2-yl)-4-(quinoxalin-6-yl)-1H-pyrazol-1-yl)-N-(2-fluorophenyl)ethanethioamide], the melting point was 88.3 to 91.2 °C. For the same compound, at ALK5, the IC50 is greater than 10 µM and the remaining activity at 10 µM is 70%. At p38α MAP kinase, the IC50 is greater than 10 µM and the remaining activity at 10 µM was determined as 125%.

Take `CN(C)c1cccc(-c2nn(CC(=S)Nc3cccc(F)c3)cc2-c2ccc3nccnc3c2)n1` [Compound 18c, 2-(3-(6-(Dimethylamino)pyridin-2-yl)-4-(quinoxalin-6-yl)-1H-pyrazol-1-yl)-N-(3-fluorophenyl)ethanethioamide]: the melting point lay within 68.5 to 70.2 °C. In addition, on ALK5, the IC50 was determined as 5 µM, the “Selectivity Index” value is greater than 2 and the remaining activity at 10 µM was found to be 29%. Further, at p38α MAP kinase, the concentration for half-maximal inhibition (IC50) was greater than 10 µM and the remaining activity at 10 µM stood at 165%.

The compound `CN(C)c1cccc(-c2nn(CC(=S)Nc3cccc(C#N)c3)cc2-c2ccc3nccnc3c2)n1` [Compound 18d, N-(3-Cyanophenyl)-2-(3-(6-(dimethylamino)pyridin-2-yl)-4-(quinoxalin-6-yl)-1H-pyrazol-1-yl)ethanethioamide] had a melting point of 108.5 to 110 °C. In addition, at ALK5, the IC50 was greater than 10 µM and the remaining activity at 10 µM was 54%. Also, on p38α MAP kinase, the half-inhibitory concentration (IC50) is greater than 10 µM and the remaining activity at 10 µM turned out to be 119%.

With `Fc1ccccc1NC(=S)Cn1cc(-c2ccc3nccnc3c2)c(-c2ccncn2)n1` [Compound 27b, N-(2-Fluorophenyl)-2-(3-(pyrimidin-4-yl)-4-(quinoxalin-6-yl)-1H-pyrazol-1-yl)ethanethioamide], on ALK5, the concentration for half-maximal inhibition (IC50) was greater than 10 µM and the “ALK5 inhibitory activity in words” value is “no significant ALK5 inhibition activity”. Further, the IC50 against p38α MAP kinase was greater than 10 µM.

Take `N#Cc1cccc(NC(=S)Cn2cc(-c3ccc4nccnc4c3)c(-c3ccncn3)n2)c1` [Compound 27d, N-(3-Cyanophenyl)-2-(3-(pyrimidin-4-yl)-4-(quinoxalin-6-yl)-1H-pyrazol-1-yl)ethanethioamide]: on ALK5, the IC50 stood at 2.26 µM, the “Selectivity Index” value is greater than 4 and the “ALK5 inhibitory activity in words” value was “no significant ALK5 inhibition activity”. At p38α MAP kinase, this compound registered a half-inhibitory concentration (IC50) greater than 10 µM.

For orientation: melting point means the temperature, or range, at which the solid turns liquid. As usually defined, the IC50 is the concentration at which inhibition is half-maximal. The low end stands for inhibition by little substance, the high end for a need for much substance.

These data come from paper PMC6320941, “Synthesis and Evaluation of 3-Substituted-4-(quinoxalin-6-yl) Pyrazoles as TGF-β Type I Receptor Kinase Inhibitors” (Molecules, 2018).
